Test results as given in patent publication US12486246B2, “Replication protein A (RPA)-DNA interaction inhibitors” (THE TRUSTEES OF INDIANA UNIVERSITY, priority 2019, dated 2025).

What was measured:
[1] = target: T1, full length heterotrimeric human RPA (Homo sapiens, UniProt P27694); assay: Electrophoretic mobility shift assay (EMSA), binding of full length human RPA to ssDNA; details: for IC50: full length human RPA binding to DNA, mean ± SD of minimum triplicate experiments
T1 construct: Full length, heterotrimeric human RPA (fl-RPA) and DBD-A/B constructs were expressed and purified; made in house
T1 sequence (P27694 whole entry): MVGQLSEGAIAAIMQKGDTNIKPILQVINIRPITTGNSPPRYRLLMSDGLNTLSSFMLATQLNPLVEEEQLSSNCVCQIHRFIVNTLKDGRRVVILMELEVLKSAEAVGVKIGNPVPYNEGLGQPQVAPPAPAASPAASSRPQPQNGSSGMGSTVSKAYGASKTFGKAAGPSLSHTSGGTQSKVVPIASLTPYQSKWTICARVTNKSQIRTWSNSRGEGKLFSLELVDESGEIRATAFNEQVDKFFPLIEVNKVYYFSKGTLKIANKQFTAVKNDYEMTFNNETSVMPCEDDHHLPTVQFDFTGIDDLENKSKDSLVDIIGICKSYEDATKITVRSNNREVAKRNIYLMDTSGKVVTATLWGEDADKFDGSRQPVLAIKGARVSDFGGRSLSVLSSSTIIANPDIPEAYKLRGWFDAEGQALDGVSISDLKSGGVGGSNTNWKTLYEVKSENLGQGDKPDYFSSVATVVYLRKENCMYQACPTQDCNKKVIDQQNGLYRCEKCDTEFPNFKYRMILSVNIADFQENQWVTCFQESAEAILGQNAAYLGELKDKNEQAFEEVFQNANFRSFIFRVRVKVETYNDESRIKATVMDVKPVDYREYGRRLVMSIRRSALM
T1 sequence (P15927 whole entry partner): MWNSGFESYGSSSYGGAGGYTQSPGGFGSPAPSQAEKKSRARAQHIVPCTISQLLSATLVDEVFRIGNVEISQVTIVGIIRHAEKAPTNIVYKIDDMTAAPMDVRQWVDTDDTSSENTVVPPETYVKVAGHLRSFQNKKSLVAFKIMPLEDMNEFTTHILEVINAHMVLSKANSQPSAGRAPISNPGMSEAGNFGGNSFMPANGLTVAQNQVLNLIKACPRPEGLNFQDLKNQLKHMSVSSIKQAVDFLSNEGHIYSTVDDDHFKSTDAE
T1 sequence (P35244 whole entry partner): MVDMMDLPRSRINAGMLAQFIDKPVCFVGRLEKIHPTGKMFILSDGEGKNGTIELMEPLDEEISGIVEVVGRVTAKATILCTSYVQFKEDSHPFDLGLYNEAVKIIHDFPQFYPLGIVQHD
Protocol: (§1) Full length, heterotrimeric human RPA (fl-RPA) and DBD-A/B constructs were expressed and purified according to previously described protocol. The DBD-A/B construct was expressed as a His6-RPA181-422 fusion protein. E. coli BL21 (DE3) cells in log growth were induced for 3 h with 0.5 mM IPTG at 37° C. The cells were lysed via sonication in buffer containing 20 mM Tris pH 7.5, 500 mM NaCl, 10 mM b-mercaptoethanol, supplemented with 25 μg/mL lysozyme, 1 μg/mL leupeptin, 1 μg/mL pepstatin and 0.5 mM PMSF. The lysate was applied to a 20 mL phosphocellulose column equilibrated in the same buffer and the flow-through material collected, brought to 5 mM Imidazole and loaded onto a 2 ml Ni-NTA column. The column was washed and proteins eluted on with a gradient from 50 mM to 500 mM imidazole. Fractions were assessed by EMSA and SDS-PAGE and DBD-A/B containing fraction were pool, dialyzed against buffer containing 50 mM HEPES pH 7.0, 500 mM NaCl and 1 mM DTT and stored at −80° C.
(§2) EMSAs were carried out using previously described procedure with the following modification. EMSA reactions (20 μL) were performed with 50 nM fl-RPA and 2.5 nM 5′ [^32P]-labeled 34-base DNA in buffer containing 20 mM HEPES (pH 7.8), 1 mM DTT, 0.001% NP-40, 50 mM NaCl. Chemical compounds were suspended in DMSO and DMSO concentration in the reaction mixture was kept constant at 2% or below 5%. RPA was incubated with inhibitor or DMSO control in reaction buffer for 30 min before the addition of DNA. Reactions were incubated for 5 min at room temperature and products separated via 6% native polyacrylamide gel electrophoresis. The bound and unbound fractions were then quantified by phosphor-imager analysis using ImageQuant software (Molecular Dynamics, CA) and IC50 values calculated by non-linear regression using SigmPlot (Sysat). For EMSA reactions with RPA DBD-A/B, 150 nM DBD-A/B was used, and electrophoresis was performed at 4° C. All other conditions were identical to those described for the full-length RPA.
Purified full length heterotrimeric human RPA protein was used to screen a series of analogs in an electrophoretic mobility shift assay (EMSA) measuring direct binding to a ss-DNA substrate. Quantification of the EMSA data and additional concentration dependent analysis to measure IC50 values of newly synthesized analogs provided potential insight into the structure-activity relationships (Table 1 and 2). […] Fluorine and trifluoromethyl substituents were included in pyridinyl compounds 28-29.

[2] = target: T2, RPA DBD-A/B construct (His6-RPA181-422 of RPA70) (Homo sapiens, UniProt P27694); assay: EMSA, binding of RPA DBD-A/B construct to DNA; details: mean ± SD, read-out: RPAA/B IC50
T2 construct: The DBD-A/B construct was expressed as a His6-RPA181-422 fusion protein; His6 (N); made in house; host or cells: E. coli BL21 (DE3)
T2 sequence (P27694 181-422): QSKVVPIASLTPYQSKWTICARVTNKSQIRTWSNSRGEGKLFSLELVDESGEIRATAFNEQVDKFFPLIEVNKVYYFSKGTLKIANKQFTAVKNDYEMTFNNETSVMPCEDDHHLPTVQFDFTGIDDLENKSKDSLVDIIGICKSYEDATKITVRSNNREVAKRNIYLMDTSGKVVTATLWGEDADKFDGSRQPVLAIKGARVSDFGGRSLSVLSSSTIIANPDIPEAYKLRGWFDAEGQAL
Protocol: as §1, §2
These domains are compact modular domains populated with hydrophobic and basic DNA binding amino acid residues and have great potential to influence binding of the compounds to the RPA70 subunit. RPA DBD-A/B construct was purified via Ni-affinity chromatography. The activity of compounds 23-27 was evaluated on purified DBD-A/B construct using EMSA.

[3] = system: sonicated salmon sperm DNA; assay: Fluorescent intercalator displacement (FID) assay, SYBR-Green; type: binding; details: 25 mM MOPS pH 6.5
Protocol: The analysis of compound interactions with DNA was determined by inhibition of SYBR-Green intercalation into DNA as we have previously described. Briefly, reactions were performed in 25 mM MOPS (pH 6.5) containing sonicated salmon sperm DNA (8.29 ng/μL), SYBR-Green, and the indicated concentrations of RPA inhibitors. Reactions were conducted in black 96-well plates. Doxorubicin, a known noncovalent DNA binding chemotherapeutic, was used as a positive control. Fluorescence was measured using a BioTek® Synergy™ H1 hybrid multi-mode microplate reader with an excitation wavelength of 485 nm, emission wavelength of 528 nm, and a read height of 7 mm. Data were collected using BioTek® Gen5™ reader software. Reactions were incubated a maximum of 5 min before measurements were collected.
(§3) In order to probe the potential role of DNA intercalation as a mechanism for RPA inhibition, compounds 19, 23, 26, 27, 43 and 45 were analyzed using FID assay along with doxorubicin (Dox) as a positive control. […] In addition, direct binding of 9 derivatives to the target protein was assessed using a differential scan fluorimetry (DSF) assay. This assay assesses the melting profile of a protein at increasing temperatures via fluorescent dye binding. The direct interaction of a small molecule to the target protein can either increase or decrease the melting temperature (Tm) of the target depending on the specific protein and their interactions. […] Heparin sulfate, a known RPA interacting molecule often used in the purification of the protein was used as a control. […] (data not shown). […] (FIG. 1B).

[4] = Aqueous solubility in unbuffered water; type: physicochemical; details: 43, 44, 45, 46, 47 vs 9, 16, 26, 28, 29 respectively
Protocol: Aqueous solubility was determined by suspending compound in un-buffered water with stirring. Insoluble material was removed by sedimentation or filtration and soluble compound quantified by absorbance spectroscopy and LC/MS. pH dependence was determined by suspending compound in 10 mM citrate buffer at pH 4.0 or 10 mM phosphate […] as described above in the description.
The morpholine ring is commonly introduced into solvent exposed regions as a privileged solubilizing group to improve solubility or pharmacokinetic properties including metabolic stability of a prospective drug scaffold which is exemplified by many FDA approved drugs. Modifications on Ring A had less of an effect than the morpholino modifications at the alkyl carboxylic acid side chain. To determine the effect of pH on solubility, we prepared solution at 1 mM in citrate buffer at pH 4, phosphate buffer at pH 7 and carbonate buffer at pH 9.5.

[5] = target: T3, RPA-AB construct (RPA70 AB domain) (Homo sapiens, UniProt P27694); assay: Differential scanning fluorimetry (DSF); type: binding
T3 construct: The DBD-A/B construct was expressed as a His6-RPA181-422 fusion protein; His6 (N); made in house; host or cells: E. coli BL21 (DE3)
T3 sequence (P27694 181-422): as above
Protocol: as §3
The interaction of compound 43 with RPA-AB constructs was performed by differential scanning fluorimetry using GloMelt™ Dye (Biotum). […] Reactions were run in an ABI 7500 real time PCR machine with temperature increasing from 25° C. to 99° C. at a 2% ramp (˜40 minutes) and fluorescence of the reporter was measured on the SYBR® Green setting. […] Data was uploaded to TSA-CRAFT software and Tm calculated as described by Lee et al. Heparin was employed as a positive control of binding to the AB-box of RPA.

Compound | fold increase in activity compared to compound 22 ([1]; full length RPA) | IC50 [1] | IC50 [2] | DNA binding activity (displacement of SYBR-Green intercalator) [3] | aqueous solubility compared to carboxylic acid counterpart (in words) [4] | decrease in Tm [5]
CCOc1ccc2cc(C3CC(c4ccc(-c5ccco5)cc4)=NN3C(=O)CCCC(=O)O)c(Cl)nc2c1 (centres unmarked) [Compound 23, 5-(5-(2-Chloro-7-ethoxyquinolin-3-yl)-3-(4-(furan-2-yl)phenyl)-4,5-dihydro-1H-pyrazol-1-yl)-5-oxopentanoic acid] | ~3.2 fold | 2.1 ± 0.48 µM | 3.3 ± 0.07 µM | No significant DNA binding activity |  | 
CCOc1ccc2cc(C3CC(c4ccc(-c5cnoc5)cc4)=NN3C(=O)CCCC(=O)O)c(Cl)nc2c1 (centres unmarked) [Compound 24, 5-(5-(2-Chloro-7-ethoxyquinolin-3-yl)-3-(4-(isoxazol-4-yl)phenyl)-4,5-dihydro-1H-pyrazol-1-yl)-5-oxopentanoic acid] |  | 1.71 ± 0.28 µM | 4.03 ± 0.28 µM |  |  | 
CCOc1ccc2cc(C3CC(c4ccc(-c5ccc(N6CCOCC6)cc5)cc4)=NN3C(=O)CCCC(=O)O)c(Cl)nc2c1 (centres unmarked) [Compound 25, 5-(5-(2-Chloro-7-ethoxyquinolin-3-yl)-3-(4′-morpholino-[1,1′-biphenyl]-4-yl)-4,5-dihydro-1H-pyrazol-1-yl)-5-oxopentanoic acid] |  | 3.14 ± 0.23 µM | 16.4 ± 2.09 µM |  |  | 
CCOc1ccc2cc(C3CC(c4ccc(-c5ccc(Br)nc5)cc4)=NN3C(=O)CCCC(=O)O)c(Cl)nc2c1 (centres unmarked) [Compound 27, 5-(3-(4-(6-Bromopyridin-3-yl)phenyl)-5-(2-chloro-7-ethoxyquinolin-3-yl)-4,5-dihydro-1H-pyrazol-1-yl)-5-oxopentanoic acid] |  | 1.01 ± 0.6 µM | 3.32 ± 0.016 µM | No significant DNA binding activity |  | 
CCOc1ccc2cc(C3CC(c4ccc(-c5ccc(Cl)nc5)cc4)=NN3C(=O)CCCC(=O)NCCCN3CCOCC3)c(Cl)nc2c1 (centres unmarked) [Compound 45, 5-(5-(2-Chloro-7-ethoxyquinolin-3-yl)-3-(4-(6-chloropyridin-3-yl)phenyl)-4,5-dihydro-1H-pyrazol-1-yl)-N-(3-morpholinopropyl)-5-oxopentanamide] |  | 4.06 ± 0.56 µM |  | No significant DNA binding activity | increased solubility | 
CCOc1ccc2cc(C3CC(c4ccc(-c5ccc(C(F)(F)F)nc5)cc4)=NN3C(=O)CCCC(=O)NCCCN3CCOCC3)c(Cl)nc2c1 (centres unmarked) [Compound 47, 5-(5-(2-Chloro-7-ethoxyquinolin-3-yl)-3-(4-(6-(trifluoromethyl)pyridin-3-yl)phenyl)-4,5-dihydro-1H-pyrazol-1-yl)-N-(3-morpholinopropyl)-5-oxopentanamide] |  | 5.85 ± 0.39 µM |  |  | increased solubility | 
heparin [reference compound] |  |  |  |  |  | 1.2 °C
